The target of assay [1] is T1, HCV polymerase (NS5B) type 1a (Hepatitis C virus genotype 1a, UniProt P26664).
T1 construct: made in house; host or cells: Escherichia coli (by the 'similar method' of the 1b enzyme)
Kind of assay: Assay of enzyme (HCV polymerase) inhibitory activity, type 1a enzyme. The format is biochemical, HCV type 1a (cloned from the blood of patients). The settings on record: HCV polymerase inhibitory activity (IC50), 1a, type 1a enzyme 1.5 μg/ml, 25° C., 60 min. An outline of the steps:
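NS5B Δ47 C-term His6 (type 1a, 1.5 μg/ml); substrate RNA 5 μg/ml; ATP/GTP/CTP 50 μM, UTP 2 μM + [5,6-3H]UTP; Tris pH 7.5, MgCl2 5 mM; 25° C, 60 min. TCA/pyrophosphate stop, GF/B filter, scintillation. IC50 vs no-compound control.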

The target of assay [2] is T2, HCV polymerase (NS5B) type 1b (Hepatitis C virus genotype 1b, UniProt P26663).
T2 construct: a region encoding NS5B (J Virol 1991 March, 65(3), 1105-13, 544 amino acids after deletion of 47 amino acids on the C-terminal); 6xHis (C); made in house; host or cells: Escherichia coli
Put plainly: Assay of enzyme (HCV polymerase) inhibitory activity, type 1b enzyme. The format is biochemical, HCV BK strain (type 1b). The settings on record: HCV polymerase inhibitory activity (IC50), 1b, type 1b enzyme 0.5 μg/ml, 25° C., 60 min. An outline of the steps: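 Rxn: NS5B 1b (BK, ΔC47, His6) 0.5 μg/ml; substrate RNA 5 μg/ml; ATP/GTP/CTP 50 μM, UTP 2 μM + [5,6-3H]UTP; 20 mM Tris pH 7.5, 5 mM MgCl2, 50 mM NaCl, 1 mM EDTA/DTT. 25 °C, 60 min. Stop with TCA/pyrophosphate, filter, scintillation count; IC50 vs. untreated.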

The results in this text go back to patent publication US8017612B2, “Piperazine compound and use thereof as a HCV polymerase inhibitor” (priority 2006, dated 2011).

pIC50: −log10 of the molar value. Structures can show the parent of a compound that is named as a salt.

As for `CCCc1ccc(S(=O)(=O)N2CCN(c3ncc(C(=O)O)s3)C[C@@H]2C(=O)NCc2ccc(C(C)C)cc2)cc1` [Example 329, 2-[(R)-3-(4-isopropyl-benzylcarbamoyl)-4-(4-propyl-benzenesulfonyl)-piperazin-1-yl]-thiazole-5-carboxylic acid], the negative logarithm of the IC50 (pIC50) in assay [1] and in assay [2] was greater than 7.00 in each case.

In the case of `CCCc1ccc(S(=O)(=O)N2CCN(c3nc(C)c(C(=O)OC(C)(C)C)s3)C[C@@H]2C(=O)NCc2ccc(C(C)C)cc2C)cc1` [Example 330, 2-[(R)-3-(4-isopropyl-2-methyl-benzylcarbamoyl)-4-(4-propyl-benzenesulfonyl)-piperazin-1-yl]-4-methyl-thiazole-5-carboxylic acid tert-butyl ester], the pIC50 is less than 6.00 in assay [1] and 6.00 to 7.00 in assay [2].

Turning to `CCCc1ccc(S(=O)(=O)N2CCN(c3nc(C)c(C(=O)O)s3)C[C@@H]2C(=O)NCc2ccc(C(C)C)cc2C)cc1` [Example 331, 2-[(R)-3-(4-isopropyl-2-methyl-benzylcarbamoyl)-4-(4-propyl-benzenesulfonyl)-piperazin-1-yl]-4-methyl-thiazole-5-carboxylic acid], the pIC50 in assay [1] and in assay [2] was greater than 7.00 in each case.

Turning to `CC(C)c1ccc(CNC(=O)[C@H]2CN(C(=O)Nc3nncs3)CCN2S(=O)(=O)c2ccc(C(F)(F)F)cc2)cc1` [Example 332, (R)-4-(4-trifluoromethyl-benzenesulfonyl)-piperazine-1,3-dicarboxylic acid 3-(4-isopropyl-benzylamide) 1-[1,3,4]thiadiazol-2-ylamide], the values for the pIC50 in assay [1] and in assay [2] were 6.00 to 7.00 and greater than 7.00, respectively.

Regarding `CCCc1ccc(S(=O)(=O)N2CCN(c3nc(C)c(C(N)=O)s3)C[C@@H]2C(=O)NCc2ccc(C(C)C)cc2)cc1` [Example 333, (R)-4-(5-carbamoyl-4-methyl-thiazol-2-yl)-1-(4-propyl-benzenesulfonyl)-piperazine-2-carboxylic acid 4-isopropyl-benzylamide], the negative logarithm of the IC50 (pIC50) in assay [1] and in assay [2] was greater than 7.00 in each case.

With `CCOC(=O)c1nnc(NC(=O)N2CCN(S(=O)(=O)c3ccc(C(F)(F)F)cc3)[C@@H](C(=O)NCc3ccc(C(C)C)cc3)C2)o1` [Example 334, 5-{[(R)-3-(4-isopropyl-benzylcarbamoyl)-4-(4-trifluoromethyl-benzenesulfonyl)-piperazine-1-carbonyl]-amino}-[1,3,4]oxadiazole-2-carboxylic acid ethyl ester], the pIC50 in assay [1] and in assay [2] was less than 6.00 in each case.

Consider `Cc1cc(C(C)C)ccc1CNC(=O)[C@H]1CN(c2nc(C)c(C(=O)O)s2)CCN1S(=O)(=O)c1ccc(C(F)(F)F)cc1` [Example 335, 2-[(R)-3-(4-isopropyl-2-methyl-benzylcarbamoyl)-4-(4-trifluoromethyl-benzenesulfonyl)-piperazin-1-yl]-4-methyl-thiazole-5-carboxylic acid], for which the pIC50 in assay [1] and in assay [2] was greater than 7.00 throughout.

Take `Cc1nc(N2CCN(S(=O)(=O)c3ccc(C(F)(F)F)cc3)[C@@H](C(=O)NCc3ccc(C(C)C)cc3)C2)ncc1C(=O)OCc1ccccc1` [Example 336, 2-[(R)-3-(4-isopropyl-benzylcarbamoyl)-4-(4-trifluoromethyl-benzenesulfonyl)-piperazin-1-yl]-4-methyl-pyrimidine-5-carboxylic acid benzyl ester]: the pIC50 in assay [1] and in assay [2] was less than 6.00 each time.

Regarding `COC(=O)c1cnc(N2CCN(S(=O)(=O)c3ccc(C(F)(F)F)cc3)[C@@H](C(=O)NCc3ccc(C(C)C)cc3)C2)nc1C` [Example 337, 2-[(R)-3-(4-isopropyl-benzylcarbamoyl)-4-(4-trifluoromethyl-benzenesulfonyl)-piperazin-1-yl]-4-methyl-pyrimidine-5-carboxylic acid methyl ester], the pIC50 is less than 6.00 in assay [1] and 6.00 to 7.00 in assay [2].

`Cc1nc(N2CCN(S(=O)(=O)c3ccc(C(F)(F)F)cc3)[C@@H](C(=O)NCc3ccc(C(C)C)cc3)C2)ncc1C(=O)O` [Example 338, 2-[(R)-3-(4-isopropyl-benzylcarbamoyl)-4-(4-trifluoromethyl-benzenesulfonyl)-piperazin-1-yl]-4-methyl-pyrimidine-5-carboxylic acid]: the pIC50 in assay [1] is less than 6.00; in assay [2], 6.00 to 7.00.

Consider `CCCc1ccc(CNC(=O)[C@H]2CN(c3nc(C)c(C(=O)O)s3)CCN2S(=O)(=O)c2ccc(C(F)(F)F)cc2)cc1` [Example 339, 4-methyl-2-[(R)-3-(4-propyl-benzylcarbamoyl)-4-(4-trifluoromethyl-benzenesulfonyl)-piperazin-1-yl]-thiazole-5-carboxylic acid], for which the pIC50 in assay [1] and in assay [2] was greater than 7.00 in each case.

Take `Cc1nc(N2CCN(S(=O)(=O)c3ccc(OC(F)(F)F)cc3)[C@@H](C(=O)NCc3ccc(C(C)C)cc3)C2)sc1C(N)=O` [Example 340, (R)-4-(5-carbamoyl-4-methyl-thiazol-2-yl)-1-(4-trifluoromethoxy-benzenesulfonyl)-piperazine-2-carboxylic acid 4-isopropyl-benzylamide]: the pIC50 in assay [1] and in assay [2] was greater than 7.00 each time.

With `CCCc1ccc(CNC(=O)[C@H]2CN(c3nc(C)c(C(=O)O)s3)CCN2S(=O)(=O)c2ccc(OC(F)(F)F)cc2)c(C)c1` [Example 341, 4-methyl-2-[(R)-3-(2-methyl-4-propyl-benzylcarbamoyl)-4-(4-trifluoromethoxy-benzenesulfonyl)-piperazin-1-yl]-thiazole-5-carboxylic acid], the pIC50 in assay [1] and in assay [2] was greater than 7.00 throughout.

As for `CC(C)c1ccc(CNC(=O)[C@H]2CN(c3ncc(C(=O)O)cn3)CCN2S(=O)(=O)c2ccc(C(F)(F)F)cc2)cc1` [Example 342, 2-[(R)-3-(4-isopropyl-benzylcarbamoyl)-4-(4-trifluoromethyl-benzenesulfonyl)-piperazin-1-yl]-pyrimidine-5-carboxylic acid], the pIC50 was less than 6.00 in assay [1] and 6.00 to 7.00 in assay [2].

With `Cc1nc(N2CCN(S(=O)(=O)c3ccc(C(F)(F)F)cc3)[C@@H](C(=O)NCc3ccc(N(C)C)cc3)C2)sc1C(=O)O` [Example 343, 2-[(R)-3-(4-dimethylamino-benzylcarbamoyl)-4-(4-trifluoromethyl-benzenesulfonyl)-piperazin-1-yl]-4-methyl-thiazole-5-carboxylic acid], the pIC50 in assay [1] and in assay [2] was greater than 7.00 in each case.

As for `Cc1nc(N2CCN(S(=O)(=O)c3ccc(C(C)C)cc3)[C@@H](C(=O)NCc3ccc(C(C)C)cc3)C2)sc1C(=O)O` [Example 344, 2-[(R)-4-(4-isopropyl-benzenesulfonyl)-3-(4-isopropyl-benzylcarbamoyl)-piperazin-1-yl]-4-methyl-thiazole-5-carboxylic acid], the pIC50 in assay [1] and in assay [2] was greater than 7.00 throughout.

Turning to `CC(C)c1ccc(CNC(=O)[C@H]2CN(C3CCNC3=O)CCN2S(=O)(=O)c2ccc(C(F)(F)F)cc2)cc1` (stereo partly drawn) [Example 345, (R)-4-(2-oxo-pyrrolidin-3-yl)-1-(4-trifluoromethyl-benzenesulfonyl)-piperazine-2-carboxylic acid 4-isopropyl-benzylamide], the pIC50 was less than 6.00 in assay [1] and 6.00 to 7.00 in assay [2].

`CN1CCN(CC(=O)N2CCN(S(=O)(=O)c3ccc(I)cc3)[C@@H](C(=O)NCc3ccc(N(C)C)cc3)C2)CC1` [Example 346, 1-(4-iodo-benzenesulfonyl)-4-[2-(4-methyl-piperazin-1-yl)-acetyl]-piperazine-2-carboxylic acid 4-dimethylamino-benzylamide]: the pIC50 in assay [1] and in assay [2] was less than 6.00 throughout.

Take `CC(C)c1ccc(CNC(=O)[C@H]2CN(C(=O)Nc3ccncc3)CCN2S(=O)(=O)c2ccc(C(F)(F)F)cc2)cc1` [Example 347, (R)-4-(4-trifluoromethyl-benzenesulfonyl)-piperazine-1,3-dicarboxylic acid 3-(4-isopropyl-benzylamide) 1-pyridin-4-ylamide]: the pIC50 in assay [1] and in assay [2] was 6.00 to 7.00 each time.

Consider `CC(C)c1ccc(CNC(=O)[C@H]2CN(C(=O)Nc3nnco3)CCN2S(=O)(=O)c2ccc(C(F)(F)F)cc2)cc1` [Example 348, (R)-4-(4-trifluoromethyl-benzenesulfonyl)-piperazine-1,3-dicarboxylic acid 3-(4-isopropyl-benzylamide) 1-[1,3,4]oxadiazol-2-ylamide], for which the pIC50 in assay [1] and in assay [2] was 6.00 to 7.00 each time.

For the compound `CC(C)c1ccc(CNC(=O)[C@H]2CN(c3cc(C(=O)O)ccn3)CCN2S(=O)(=O)c2ccc(C(F)(F)F)cc2)cc1` [Example 349, 2-[(R)-3-(4-isopropyl-benzylcarbamoyl)-4-(4-trifluoromethyl-benzenesulfonyl)-piperazin-1-yl]-isonicotinic acid trifluoroacetate], the values for the negative logarithm of the IC50 (pIC50) in assay [1] and in assay [2] were less than 6.00 and 6.00 to 7.00, respectively.

In the case of `CC(C)c1ccc(S(=O)(=O)N2CCN(C(N)=O)CC2C(=O)NCc2ccc(C(F)(F)F)cc2)cc1` (centres unmarked) [Example 350, 4-(4-isopropyl-benzenesulfonyl)-piperazine-1,3-dicarboxylic acid 1-amide 3-(4-trifluoromethyl-benzylamide)], the pIC50 in assay [1] and in assay [2] was less than 6.00 in each case.

Usually pIC50 stands for the IC50 on a negative log10 scale, so that one unit is a factor of ten. Low readings indicate a large IC50, high ones a small IC50.
